Each structure is given as a SMILES string. Where only a bound is given, the exact number is not on record here.

For orientation: EC30 means the concentration at which the effect reaches the 30% level.

The first test deals with T1, F508del (Homo sapiens, UniProt P13569, DEL508-508).
T1 construct: expressed in transfected cells
T1 sequence (P13569 with tags, fused parts or gaps DEL508-508): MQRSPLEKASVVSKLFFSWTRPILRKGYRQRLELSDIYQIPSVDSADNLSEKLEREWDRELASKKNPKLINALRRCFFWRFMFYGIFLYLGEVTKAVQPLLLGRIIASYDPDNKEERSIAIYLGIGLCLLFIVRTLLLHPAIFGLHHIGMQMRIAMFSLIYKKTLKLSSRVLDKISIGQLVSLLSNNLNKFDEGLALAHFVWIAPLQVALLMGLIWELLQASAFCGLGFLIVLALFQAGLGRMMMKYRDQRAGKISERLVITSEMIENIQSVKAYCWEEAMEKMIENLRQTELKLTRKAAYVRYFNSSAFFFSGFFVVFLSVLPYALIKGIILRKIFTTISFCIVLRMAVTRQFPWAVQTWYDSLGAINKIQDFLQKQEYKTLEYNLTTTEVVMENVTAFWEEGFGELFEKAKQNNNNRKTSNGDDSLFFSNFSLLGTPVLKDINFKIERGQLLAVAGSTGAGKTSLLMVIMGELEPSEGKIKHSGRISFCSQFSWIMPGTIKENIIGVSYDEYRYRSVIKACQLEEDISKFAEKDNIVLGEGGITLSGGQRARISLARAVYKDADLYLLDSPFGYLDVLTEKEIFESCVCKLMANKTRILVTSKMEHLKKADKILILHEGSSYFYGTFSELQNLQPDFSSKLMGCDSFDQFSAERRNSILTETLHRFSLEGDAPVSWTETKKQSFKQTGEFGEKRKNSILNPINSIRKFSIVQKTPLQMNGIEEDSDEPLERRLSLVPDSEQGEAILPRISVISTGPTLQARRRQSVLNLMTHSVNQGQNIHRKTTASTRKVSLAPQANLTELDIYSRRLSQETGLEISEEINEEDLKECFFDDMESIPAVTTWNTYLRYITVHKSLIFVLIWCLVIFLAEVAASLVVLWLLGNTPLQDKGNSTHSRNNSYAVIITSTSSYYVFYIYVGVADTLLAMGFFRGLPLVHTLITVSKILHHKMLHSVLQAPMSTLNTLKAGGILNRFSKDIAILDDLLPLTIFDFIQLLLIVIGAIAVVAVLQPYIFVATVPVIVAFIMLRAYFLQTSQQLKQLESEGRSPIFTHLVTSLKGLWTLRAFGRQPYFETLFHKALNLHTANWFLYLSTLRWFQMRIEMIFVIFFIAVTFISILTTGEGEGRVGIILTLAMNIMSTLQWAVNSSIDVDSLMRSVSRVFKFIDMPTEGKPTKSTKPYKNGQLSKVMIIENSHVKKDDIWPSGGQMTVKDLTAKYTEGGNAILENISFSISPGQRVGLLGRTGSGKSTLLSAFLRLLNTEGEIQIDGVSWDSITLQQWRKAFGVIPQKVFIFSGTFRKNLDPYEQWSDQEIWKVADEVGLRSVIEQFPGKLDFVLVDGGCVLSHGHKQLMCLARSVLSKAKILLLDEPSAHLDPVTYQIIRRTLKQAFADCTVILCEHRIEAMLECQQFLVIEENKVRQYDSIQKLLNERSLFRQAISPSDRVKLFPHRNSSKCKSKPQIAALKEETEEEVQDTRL
The experiment in a line: Protocol 2: FRET membrane potential optical assay (VIPR), identification of correction compounds. The class given is cell-based. The following applies: F508del CFTR modulator activity; compounds of Table 1; read-out: EC30. The method, boiled down: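 Mouse NIH3T3 cells, stable F508del; cpd 16 hrs, 37° C., serum-free; pos ctrl 27° C. 16 hrs. Rinse in Krebs Ringers, dye load, then add 10 μM forskolin + 20 μM genistein with Cl^−-free (gluconate) medium; depolarization by FRET voltage dyes.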
As to `Cc1cc(C)cc(-c2ccc(C(=O)NS(=O)(=O)c3cccc(OCCC(C)C)n3)c(N3C[C@@H](C)CC3(C)C)n2)c1` [Compound 2701], the EC30 is under 3000 nM.

`C[C@@H]1CN(c2nc(-c3ccccc3Cl)ccc2C(=O)NS(=O)(=O)c2cccnc2N)C(C)(C)C1` [Compound 2066, N-[(2-amino-3-pyridyl)sulfonyl]-6-(2-chlorophenyl)-2-[(4S)-2,2,4-trimethylpyrrolidin-1-yl]pyridine-3-carboxamide]: the EC30 is under 3000 nM.

Turning to `COc1ccc2c(c1)CCN(c1cccc(S(=O)(=O)NC(=O)c3cccnc3N3CC(C)CC3(C)C)n1)C2` (stereo not drawn) [Compound 2260, N—[[6-(6-methoxy-3,4-dihydro-1H-isoquinolin-2-yl)-2-pyridyl]sulfonyl]-2-(2,2,4-trimethylpyrrolidin-1-yl)pyridine-3-carboxamide], the EC30 is under 3000 nM. Consider `CC1CN(c2ncccc2C(=O)NS(=O)(=O)c2cccc(OCc3ccc(C(C)(C)C)cc3)n2)C(C)(C)C1` (stereo not drawn) [Compound 2286, N—[[6-[(4-tert-butylphenyl)methoxy]-2-pyridyl]sulfonyl]-2-(2,2,4-trimethylpyrrolidin-1-yl)pyridine-3-carboxamide], for which the EC30 is under 3000 nM.

On to `CC1CN(c2ncccc2C(=O)NS(=O)(=O)c2cccc(Oc3cccc(Cl)c3)n2)C(C)(C)C1` (stereo not drawn) [Compound 2461, N—[[6-(3-chlorophenoxy)-2-pyridyl]sulfonyl]-2-(2,2,4-trimethylpyrrolidin-1-yl)pyridine-3-carboxamide], for which the EC30 is under 3000 nM. The same measure, in the same setting: as for `COc1cc(CO)cc(-c2ccc(C(=O)NS(=O)(=O)c3ccc[nH]c3=O)c(N3C[C@@H](C)CC3(C)C)n2)c1` [Compound 2247, 6-[3-(hydroxymethyl)-5-methoxy-phenyl]-N-[(2-oxo-1H-pyridin-3-yl)sulfonyl]-2-[(4S)-2,2,4-trimethylpyrrolidin-1-yl]pyridine-3-carboxamide], the figure is 3000 to 10000 nM; as for `CC1CN(c2ncccc2C(=O)NS(=O)(=O)c2cccc(NCCC(=O)OC(C)(C)C)n2)C(C)(C)C1` (stereo not drawn) [Compound 2495, tert-butyl 3-[[6-[[2-(2,2,4-trimethylpyrrolidin-1-yl)pyridine-3-carbonyl]sulfamoyl]-2-pyridyl]amino]propanoate], under 3000 nM.

Staying with this test, now noted: Table 3; compounds of Table 1 as modulators of CFTR activity; protocol not stated.
Turning to `Cc1cc(C)c(Oc2nc(-c3cccc(CN4CCOCC4)c3)ccc2C(=O)NS(=O)(=O)c2cccc(N)n2)c(C)c1` [Compound 465, N-[(6-amino-2-pyridyl)sulfonyl]-6-[3-(morpholinomethyl)phenyl]-2-(2,4,6-trimethylphenoxy)pyridine-3-carboxamide], the EC30 result was “++ (“++” means between 3 uM and 10 uM)”. For `Cc1cccc(C)c1Cn1nc(-c2cccc3c2ccn3C)cc1C(=O)NS(=O)(=O)c1ccccc1` [Compound 363, N-(benzenesulfonyl)-2-[(2,6-dimethylphenyl)methyl]-5-(1-methylindol-4-yl)pyrazole-3-carboxamide], the EC30 entry was “+++ (“+++” means <3 uM)”.

`Cc1cc(C)c(Oc2nc(-c3cnn(C)c3C)ccc2C(=O)NS(=O)(=O)c2cccc(N)n2)c(C)c1` [Compound 584, N-[(6-amino-2-pyridyl)sulfonyl]-6-(1,5-dimethylpyrazol-4-yl)-2-(2,4,6-trimethylphenoxy)pyridine-3-carboxamide]: the EC30 result is “++ (“++” means between 3 uM and 10 uM)”.

Consider `CC(C)Oc1cc(-c2ccc(C(=O)NS(=O)(=O)c3cccc(N)n3)c(N3[C@H](C)CC[C@@H]3C)n2)ccc1Cl` [Compound 788, N-[(6-amino-2-pyridyl)sulfonyl]-6-(4-chloro-3-isopropoxy-phenyl)-2-[(2S,5R)-2,5-dimethylpyrrolidin-1-yl]pyridine-3-carboxamide], for which the EC30 entry is on record as “+++ (“+++” means <3 uM)”.

In the case of `COCc1cccc(-c2ccc(C(=O)NS(=O)(=O)c3cccc(N)n3)c(Oc3c(C)cc(C)cc3C)n2)c1` [Compound 69, N-[(6-amino-2-pyridyl)sulfonyl]-6-[3-(methoxymethyl)phenyl]-2-(2,4,6-trimethylphenoxy)pyridine-3-carboxamide], the concentration for an effect of 30% (EC30) entry was “+++ (“+++” means <3 uM)”.
